Measurements taken from the NIST ThermoML archive (doi:10.1021/je400408w).
Numbers after ± are expanded uncertainties.

How the values were obtained:
[1] = molar heat capacity at constant pressure; xn = mol fraction of the nth substance listed; details: 100 kPa, Liquid
[2] = 101.33 kPa, Liquid; for speed of sound: Pulse-echo method; for mass density: Vibrating tube method
[3] = molar heat capacity at constant pressure; details: 100 kPa, Liquid

Cc1ccc(Cl)cc1 [4-chlorotoluene] + O=C1CCCN1
molar heat capacity at constant pressure [J/K/mol], [1]
Details | 293.15 K | 298.15 K | 303.15 K
x2 = 0 | 175.66 ± 1.6 | 177.95 ± 1.6 | 180.37 ± 1.7
x2 = 0.0386 | 175.99 ± 1.6 | 178.08 ± 1.6 | 180.47 ± 1.7
x2 = 0.0724 | 176.3 ± 1.6 | 178.23 ± 1.6 | 180.58 ± 1.7
x2 = 0.1123 | 176.65 ± 1.6 | 178.52 ± 1.7 | 180.66 ± 1.7
x2 = 0.1526 | 177.03 ± 1.6 | 178.78 ± 1.7 | 180.84 ± 1.7
x2 = 0.1926 | 177.35 ± 1.6 | 179.04 ± 1.7 | 180.93 ± 1.7
x2 = 0.2317 | 177.67 ± 1.6 | 179.22 ± 1.7 | 181.06 ± 1.7
x2 = 0.2725 | 177.98 ± 1.6 | 179.48 ± 1.7 | 181.12 ± 1.7
x2 = 0.3126 | 178.18 ± 1.6 | 179.64 ± 1.7 | 181.1 ± 1.7
x2 = 0.3516 | 178.38 ± 1.6 | 179.7 ± 1.7 | 181.14 ± 1.7
x2 = 0.3916 | 178.43 ± 1.6 | 179.77 ± 1.7 | 181.06 ± 1.7
x2 = 0.4332 | 178.43 ± 1.6 | 179.72 ± 1.7 | 180.88 ± 1.7
x2 = 0.4753 | 178.35 ± 1.6 | 179.67 ± 1.7 | 180.61 ± 1.7
x2 = 0.5121 | 178.24 ± 1.6 | 179.47 ± 1.7 | 180.38 ± 1.7
x2 = 0.5512 | 177.97 ± 1.6 | 179.17 ± 1.7 | 180.03 ± 1.7
x2 = 0.5925 | 177.61 ± 1.6 | 178.79 ± 1.7 | 179.53 ± 1.7
x2 = 0.6325 | 177.15 ± 1.6 | 178.25 ± 1.6 | 179.05 ± 1.7
x2 = 0.6715 | 176.58 ± 1.6 | 177.74 ± 1.6 | 178.48 ± 1.7
x2 = 0.7122 | 175.92 ± 1.6 | 176.99 ± 1.6 | 177.81 ± 1.6
x2 = 0.7534 | 175.18 ± 1.6 | 176.18 ± 1.6 | 177 ± 1.6
x2 = 0.7921 | 174.31 ± 1.6 | 175.32 ± 1.6 | 176.22 ± 1.6
x2 = 0.8324 | 173.32 ± 1.6 | 174.4 ± 1.6 | 175.34 ± 1.6
x2 = 0.8731 | 172.28 ± 1.6 | 173.34 ± 1.6 | 174.46 ± 1.6
x2 = 0.9123 | 171.14 ± 1.6 | 172.21 ± 1.6 | 173.5 ± 1.6
x2 = 0.9543 | 169.86 ± 1.6 | 171 ± 1.6 | 172.43 ± 1.6

CN1CCCC1=O [N-methylpyrrolidone]
Details | mass density, 293.15 K [kg/m3] | mass density, 298.15 K [kg/m3] | mass density, 303.15 K [kg/m3] | molar heat capacity at constant pressure, 293.15 K [J/K/mol] | molar heat capacity at constant pressure, 298.15 K [J/K/mol] | molar heat capacity at constant pressure, 303.15 K [J/K/mol] | speed of sound, 293.15 K [m/s] | speed of sound, 298.15 K [m/s] | speed of sound, 303.15 K [m/s]
[2] | 1033.28 ± 0.26 | 1028.26 ± 0.25 | 1023.49 ± 0.25 | – | – | – | 1565.6 ± 1.3 | 1546.1 ± 1.2 | 1527.3 ± 1.2
[3] | – | – | – | 165.44 ± 1.5 | 166.22 ± 1.5 | 166.92 ± 1.6 | – | – | –

CN1CCCC1=O [N-methylpyrrolidone] + Cc1ccc(Cl)cc1
[1], x1 = 1
Details | molar heat capacity at constant pressure [J/K/mol]
293.15 K | 165.44 ± 1.5
298.15 K | 166.22 ± 1.5
303.15 K | 166.92 ± 1.6

CN1CCCC1=O [N-methylpyrrolidone] + Cc1cccc(Cl)c1
[1], x1 = 1
Details | molar heat capacity at constant pressure [J/K/mol]
293.15 K | 165.44 ± 1.5
298.15 K | 166.22 ± 1.5
303.15 K | 166.92 ± 1.6

CN1CCCC1=O [N-methylpyrrolidone] + Cc1ccccc1Cl
[1], x1 = 1
Details | molar heat capacity at constant pressure [J/K/mol]
293.15 K | 165.44 ± 1.5
298.15 K | 166.22 ± 1.5
303.15 K | 166.92 ± 1.6
